Inhibition and IC50 data for 21 compounds are collected here from patent US8519149B2, “Tricyclic compounds as mPGES-1 inhibitors” (Glenmark Pharmaceuticals S.A., priority 2010, dated 2013).

A value given as a limit tells only on which side of the number the result lay.

The target in this experiment is T1, Recombinant human mPGES-1 (Homo sapiens, UniProt O14684).
T1 sequence (O14684 1-152): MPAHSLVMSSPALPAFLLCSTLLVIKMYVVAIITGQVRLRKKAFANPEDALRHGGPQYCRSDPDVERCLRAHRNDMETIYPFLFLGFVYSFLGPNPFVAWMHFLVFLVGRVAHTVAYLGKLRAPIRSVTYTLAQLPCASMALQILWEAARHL
Description: In-vitro mPGES-1 enzyme inhibition assay (PGE2 formation from PGH2, HTRF detection). Type of experiment: biochemical. The note with it: for inhibition at 1 µM: 1 μM test compound, read-out: Percentage inhibition at 1 μM; for inhibition at 1 µM / inhibition at 10 µM: recombinant human mPGES-1 microsomal fraction; for inhibition at 10 µM: 10 μM test compound, read-out: Percentage inhibition at 10 μM; for IC50: class symbols, selected examples. In outline: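 IC50 values were derived by nonlinear regression of percent inhibition relative to enzyme reactions run without inhibitor. PGE2 formed from PGH2 with GSH was quantified by antibody-based HTRF after stannous chloride quench. Enzyme source was human mPGES-1 microsomes at 40-60 μg/mL protein; DMSO 0.5% (v/v).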

`CC1(C)Cc2c(c(C(=O)Nc3cc(C(F)(F)F)ccc3F)cc3nc(Nc4c(F)cccc4Cl)[nH]c23)O1` [Example-111, 2-[(2-Chloro-6-fluorophenyl)amino]-N-[2-fluoro-5-(trifluoromethyl)phenyl]-7,7-dimethyl-7,8-dihydro-1H-furo[3,2-e]benzimidazole-5-carboxamide]: the inhibition at 1 µM was determined as 96.4%, the inhibition at 10 µM worked out at 99.8% and the 50% inhibitory concentration (IC50) was less than 50 nM.

As for `CC1(C)Cc2c(c(C(=O)Nc3ccc(C(F)(F)F)cc3F)cc3nc(Nc4c(F)cccc4Cl)[nH]c23)O1` [Example-112, 2-[(2-Chloro-6-fluorophenyl)amino]-N-[2-fluoro-4-(trifluoromethyl)phenyl]-7,7-dimethyl-7,8-dihydro-1H-furo[3,2-e]benzimidazole-5-carboxamide], the inhibition at 1 µM came out at 96.8%, the inhibition at 10 µM is 96.2% and the half-inhibitory concentration (IC50) is less than 50 nM.

Turning to `Cc1cc(C(F)(F)F)ccc1NC(=O)c1cc2nc(Nc3c(F)cccc3Cl)[nH]c2c2c1OC(C)(C)C2` [Example-113, 2-[(2-Chloro-6-fluorophenyl)amino]-7,7-dimethyl-N-[2-methyl-4-(trifluoromethyl)phenyl]-7,8-dihydro-1H-furo[3,2-e]benzimidazole-5-carboxamide], the inhibition at 1 µM came out at 99.4%, the inhibition at 10 µM was determined as 98.7% and the concentration for half-maximal inhibition (IC50) was less than 50 nM.

With `CC1(C)Cc2c(c(C(=O)Nc3ccc(C(C)(C)C)cc3)cc3nc(Nc4c(F)cccc4Cl)[nH]c23)O1` [Example-114, N-(4-tert-Butylphenyl)-2-[(2-chloro-6-fluorophenyl)amino]-7,7-dimethyl-7,8-dihydro-1H-furo[3,2-e]benzimidazole-5-carboxamide], the inhibition at 1 µM turned out to be 99.4%, the inhibition at 10 µM was found to be 99.1% and the IC50 is less than 50 nM.

In the case of `CC1(C)Cc2c(c(C(=O)Nc3ccc(OC(F)F)nc3)cc3nc(Nc4c(F)cccc4Cl)[nH]c23)O1` [Example-115, 2-[(2-Chloro-6-fluorophenyl)amino]-N-[6-(difluoromethoxy)pyridin-3-yl]-7,7-dimethyl-7,8-dihydro-1H-furo[3,2-e]benzimidazole-5-carboxamide], the inhibition at 1 µM was 100%, the inhibition at 10 µM was 100% and the concentration for half-maximal inhibition (IC50) was less than 50 nM.

`CC1(C)Cc2c(c(C(=O)NC3(c4ccc(C(F)(F)F)cc4)CC3)cc3nc(Nc4c(F)cccc4Cl)[nH]c23)O1` [Example-116, 2-[(2-Chloro-6-fluorophenyl)amino]-7,7-dimethyl-N-{1-[4-(trifluoromethyl)phenyl]cyclopropyl}-7,8-dihydro-1H-furo[3,2-e]benzimidazole-5-carboxamide]: the inhibition at 1 µM is 96.9%, the inhibition at 10 µM amounted to 99.8% and the IC50 is less than 50 nM.

On to `CC1(C)Cc2c(c(C(=O)Nc3ccc(F)cc3C(F)(F)F)cc3nc(Nc4c(F)cccc4Cl)[nH]c23)O1` [Example-117, 2-[(2-Chloro-6-fluorophenyl)amino]-N-[4-fluoro-2-(trifluoromethyl)phenyl]-7,7-dimethyl-7,8-dihydro-1H-furo[3,2-e]benzimidazole-5-carboxamide], for which the inhibition at 1 µM was 100%, the inhibition at 10 µM is 98.7% and the IC50 was less than 50 nM.

In the case of `CC1(C)Cc2c(c(C(=O)NC3(c4ccccc4C(F)(F)F)CC3)cc3nc(Nc4c(F)cccc4Cl)[nH]c23)O1` [Example-118, 2-[(2-Chloro-6-fluorophenyl)amino]-7,7-dimethyl-N-{1-[2-(trifluoromethyl)phenyl]cyclopropyl}-7,8-dihydro-1H-furo[3,2-e]benzimidazole-5-carboxamide], the inhibition at 1 µM worked out at 97%, the inhibition at 10 µM worked out at 98.7% and the IC50 is greater than 100 nM.

Consider `CC1(C)Cc2c(c(C(=O)Nc3cccc(C(C)(F)F)c3)cc3nc(Nc4c(F)cccc4Cl)[nH]c23)O1` [Example-119, 2-[(2-Chloro-6-fluorophenyl)amino]-N-[3-(1,1-difluoroethyl)phenyl]-7,7-dimethyl-7,8-dihydro-1H-furo[3,2-e]benzimidazole-5-carboxamide], for which the inhibition at 1 µM came out at 98.1%, the inhibition at 10 µM was 100% and the IC50 is less than 50 nM.

Take `Cc1cccc(Cl)c1Nc1nc2cc(C(=O)Nc3cccc(C(C)(F)F)c3)c3c(c2[nH]1)CC(C)(C)O3` [Example-120, 2-[(2-Chloro-6-methylphenyl)amino]-N-[3-(1,1-difluoroethyl)phenyl]-7,7-dimethyl-7,8-dihydro-1H-furo[3,2-e]benzimidazole-5-carboxamide]: the inhibition at 1 µM turned out to be 90.5%, the inhibition at 10 µM was 99% and the half-maximal inhibitory concentration (IC50) is less than 50 nM.

As to `CC1(C)Cc2c(c(C(=O)Nc3ccc(Cl)cn3)cc3nc(Nc4c(F)cccc4Cl)[nH]c23)O1` [Example-121, 2-[(2-Chloro-6-fluorophenyl)amino]-N-(5-chloropyridin-2-yl)-7,7-dimethyl-7,8-dihydro-1H-furo[3,2-e]benzimidazole-5-carboxamide], the inhibition at 1 µM was 100% and the inhibition at 10 µM is 100%.

With `CC1(C)Cc2c(c(C(=O)Nc3ccc(C(F)(F)F)cn3)cc3nc(Nc4c(F)cccc4Cl)[nH]c23)O1` [Example-122, 2-[(2-Chloro-6-fluorophenyl)amino]-7,7-dimethyl-N-[5-(trifluoromethyl)pyridin-2-yl]-7,8-dihydro-1H-furo[3,2-e]benzimidazole-5-carboxamide], the inhibition at 1 µM stood at 96%, the inhibition at 10 µM was 98.1% and the IC50 was less than 50 nM.

Take `Cc1ccc(Cl)c(Nc2nc3cc(C(=O)Nc4cccc(C(F)(F)F)c4)c4c(c3[nH]2)CC(C)(C)O4)c1` [Example-123, 2-[(2-Chloro-5-methylphenyl)amino]-7,7-dimethyl-N-[3-(trifluoromethyl)phenyl]-7,8-dihydro-1H-furo[3,2-e]benzimidazole-5-carboxamide]: the inhibition at 1 µM stood at 91.1%, the inhibition at 10 µM is 98.9% and the IC50 is less than 50 nM.

For the compound `Cc1cccc(Cl)c1Nc1nc2cc(C(=O)Nc3ccc(C(F)(F)F)cn3)c3c(c2[nH]1)CC(C)(C)O3` [Example-124, 2-[(2-Chloro-6-methylphenyl)amino]-7,7-dimethyl-N-[5-(trifluoromethyl)pyridin-2-yl]-7,8-dihydro-1H-furo[3,2-e]benzimidazole-5-carboxamide], the inhibition at 1 µM was found to be 97.1%, the inhibition at 10 µM amounted to 100% and the half-inhibitory concentration (IC50) is less than 50 nM.

Take `CC1(C)Cc2c(c(C(=O)Nc3ccc(OCC4CC4)nc3)cc3nc(Nc4c(F)cccc4Cl)[nH]c23)O1` [Example-125, 2-[(2-Chloro-6-fluorophenyl)amino]-N-[6-(cyclopropylmethoxy)pyridin-3-yl]-7,7-dimethyl-7,8-dihydro-1H-furo[3,2-e]benzimidazole-5-carboxamide]: the inhibition at 1 µM is 10.6% and the inhibition at 10 µM was 76.7%.

Regarding `CC1(C)Cc2c(c(C(=O)Nc3ncc(Cl)cc3F)cc3nc(Nc4c(F)cccc4Cl)[nH]c23)O1` [Example-126, N-(5-Chloro-3-fluoropyridin-2-yl)-2-((2-chloro-6-fluorophenyl)amino)-7,7-dimethyl-7,8-dihydro-1H-benzofuro[4,5-d]imidazole-5-carboxamide], the inhibition at 1 µM turned out to be 96.6%, the inhibition at 10 µM was 97.7% and the IC50 is less than 50 nM.

`CC1(C)Cc2c(c(C(=O)NC3(c4cccc(C(F)(F)F)c4)CC3)cc3nc(Nc4c(F)cccc4Cl)[nH]c23)O1` [Example-127, 2-((2-Chloro-6-fluorophenyl)amino)-7,7-dimethyl-N-(1-(3-(trifluoromethyl)phenyl)cyclopropyl)-7,8-dihydro-1H-benzofuro[4,5-d]imidazole-5-carboxamide]: the inhibition at 1 µM came to 94.7%, the inhibition at 10 µM is 99% and the IC50 was less than 50 nM.

In the case of `Cc1ccc(NC(=O)c2cc3nc(Nc4c(F)cccc4Cl)[nH]c3c3c2OC(C)(C)C3)c(F)c1` [Example-128, 2-((2-Chloro-6-fluorophenyl)amino)-N-(2-fluoro-4-methylphenyl)-7,7-dimethyl-7,8-dihydro-1H-benzofuro[4,5-d]imidazole-5-carboxamide], the inhibition at 1 µM is 90.5%, the inhibition at 10 µM came to 94% and the IC50 was less than 50 nM.

For `CC1(C)Cc2c(c(C(=O)NCc3ccc(F)cc3C(F)(F)F)cc3nc(Nc4c(F)cccc4Cl)[nH]c23)O1` [Example-129, 2-((2-Chloro-6-fluorophenyl)amino)-N-(4-fluoro-2-(trifluoromethyl)benzyl)-7,7-dimethyl-7,8-dihydro-1H-benzofuro[4,5-d]imidazole-5-carboxamide], the inhibition at 1 µM came out at 88.3%, the inhibition at 10 µM was 97.1% and the IC50 is less than 50 nM.

Turning to `Cc1cccc(Cl)c1Nc1nc2cc(C(=O)NCc3ccc(F)cc3C(F)(F)F)c3c(c2[nH]1)CC(C)(C)O3` [Example-130, 2-((2-Chloro-6-methylphenyl)amino)-N-(4-fluoro-2-(trifluoromethyl)benzyl)-7,7-dimethyl-7,8-dihydro-1H-benzofuro[4,5-d]imidazole-5-carboxamide], the inhibition at 1 µM is 74.6% and the inhibition at 10 µM was 96.8%.

In the case of `CC1(C)Cc2c(c(C(=O)Nc3cc(C(F)F)ccc3F)cc3nc(Nc4c(F)cccc4Cl)[nH]c23)O1` [Example-131, 2-((2-Chloro-6-fluorophenyl)amino)-N-(5-(difluoromethyl)-2-fluorophenyl)-7,7-dimethyl-7,8-dihydro-1H-benzofuro[4,5-d]imidazole-5-carboxamide], the inhibition at 1 µM came out at 96.9%, the inhibition at 10 µM worked out at 98.1% and the IC50 is less than 50 nM.

As a reminder, the inhibition is the share of the control response that was lost under treatment. Broadly, the IC50 is the concentration needed to halve the response being measured.
